How the values were obtained:
Italian ryegrass [1] = test: Test A preemergence; type: in vivo, Lolium multiflorum; conditions: for Plant response rating, Ryegrass, Italian: 31 g ai/ha, 0 to 100 scale where 0 is no effect and 100 is complete control, visual, approximately 10 days; for Ryegrass, Italian plant response rating (0 to 100 scale): 125 g ai/ha
How it was run: (§1)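 Greenhouse pot test, loam/sand soil. Formulation: non-phytotoxic solvent mix plus surfactant. Pre: directed spray onto soil after sowing. Post: plants at 1–2 leaf, 2–10 cm. Rated visually vs untreated controls at ~10 d, 0 (no effect) to 100 (complete control).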

kochia [2] = test: Test A postemergence; type: in vivo, Kochia scoparia; conditions: 0 to 100 scale, 0 no effect, 100 complete control
How it was run: as §1

pigweed [3] = test: Test A preemergence; type: in vivo, Amaranthus retroflexus; conditions: for Plant response rating, Pigweed: 31 g ai/ha, 0 to 100 scale where 0 is no effect and 100 is complete control, visual, approximately 10 days; for Pigweed plant response rating (0 to 100 scale): 125 g ai/ha
How it was run: as §1

ragweed [4] = test: Test A preemergence; type: in vivo, Ambrosia elatior; conditions: for Plant response rating, Ragweed: 31 g ai/ha, 0 to 100 scale where 0 is no effect and 100 is complete control, visual, approximately 10 days; for Ragweed plant response rating (0 to 100 scale): 125 g ai/ha
How it was run: as §1

sedge, umbrella = test: Test B flooded paddy test; type: in vivo, Cyperus difformis; conditions: Flood, 250 g ai/ha; 0 to 100 scale where 0 is no effect and 100 is complete control
How it was run: (§2)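 Post-emergence paddy-water application at the 2-leaf stage, with 3 cm flood kept for the whole test. Response was judged visually relative to controls after 13 to 15 greenhouse days, 0 indicating no effect and 100 complete control.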

galium = test: Test A postemergence; type: in vivo, Galium aparine; conditions: 0 to 100 scale, 0 no effect, 100 complete control
How it was run: as §1

rice = test: Test B flooded paddy test; type: in vivo, Oryza sativa; conditions: Flood, 250 g ai/ha; 0 to 100 scale where 0 is no effect and 100 is complete control
How it was run: as §2

kochia [5] = test: Test A preemergence; type: in vivo, Kochia scoparia; conditions: for Plant response rating, Kochia: 31 g ai/ha, 0 to 100 scale where 0 is no effect and 100 is complete control, visual, approximately 10 days; for Kochia plant response rating (0 to 100 scale): 125 g ai/ha
How it was run: as §1

corn = test: Test A postemergence; type: in vivo, Zea mays; conditions: 0 to 100 scale, 0 no effect, 100 complete control
How it was run: as §1

ragweed [6] = test: Test A postemergence; type: in vivo, Ambrosia elatior; conditions: 0 to 100 scale, 0 no effect, 100 complete control
How it was run: as §1

Italian ryegrass [7] = test: Test A postemergence; type: in vivo, Lolium multiflorum; conditions: 0 to 100 scale, 0 no effect, 100 complete control
How it was run: as §1

pigweed [8] = test: Test A postemergence; type: in vivo, Amaranthus retroflexus; conditions: 0 to 100 scale, 0 no effect, 100 complete control
How it was run: as §1

barnyardgrass [9] = test: Test A preemergence; type: in vivo, Echinochloa crus-galli; conditions: for Plant response rating, Barnyardgrass: 31 g ai/ha, 0 to 100 scale where 0 is no effect and 100 is complete control, visual, approximately 10 days; for Barnyardgrass plant response rating (0 to 100 scale, 0 is no effect, 100 is complete control): 125 g ai/ha
How it was run: as §1

giant foxtail [10] = test: Test A postemergence; type: in vivo, Setaria faberii; conditions: 0 to 100 scale, 0 no effect, 100 complete control
How it was run: as §1

wheat = test: Test A postemergence; type: in vivo, Triticum aestivum; conditions: 0 to 100 scale, 0 no effect, 100 complete control
How it was run: as §1

barnyardgrass [11] = test: Test A postemergence; type: in vivo, Echinochloa crus-galli; conditions: 0 to 100 scale, 0 no effect, 100 complete control
How it was run: as §1

giant foxtail [12] = test: Test A preemergence; type: in vivo, Setaria faberii; conditions: for Plant response rating, Foxtail, Giant: 31 g ai/ha, 0 to 100 scale where 0 is no effect and 100 is complete control, visual, approximately 10 days; for Foxtail, Giant plant response rating (0 to 100 scale): 125 g ai/ha
How it was run: as §1

barnyardgrass [13] = test: Test B flooded paddy test; type: in vivo, Echinochloa crus-galli; conditions: Flood, 250 g ai/ha; 0 to 100 scale where 0 is no effect and 100 is complete control
How it was run: as §2

Heteranthera limosa = test: Test B flooded paddy test; type: in vivo; conditions: Flood, 250 g ai/ha; 0 to 100 scale where 0 is no effect and 100 is complete control
How it was run: as §2

blackgrass = test: Test A postemergence; type: in vivo, Alopecurus myosuroides; conditions: 0 to 100 scale, 0 no effect, 100 complete control
How it was run: as §1

[14] = 1000 g ai/ha, 0 to 100 scale, 0 no effect, 100 complete control, approx. 10 days

Fc1cccc(Oc2ncc(Cl)cn2)c1-n1ccnn1 [Compound 159]
40: Plant response rating, Corn (corn; 1000 g ai/ha)
90: Plant response rating, Galium (galium; 1000 g ai/ha) | Plant response rating, Foxtail, Giant (giant foxtail [10]; 1000 g ai/ha)
50: Plant response rating, Blackgrass (blackgrass; 1000 g ai/ha)
80: Plant response rating, Ragweed (ragweed [6]; 1000 g ai/ha)
0: Plant response rating, Sedge, Umbrella (sedge, umbrella) | Plant response rating, Rice (rice) | Plant response rating, Barnyardgrass (barnyardgrass [13]) | Plant response rating, Ducksalad (Heteranthera limosa)
100: Plant response rating, Kochia (kochia [2]; 1000 g ai/ha) | Pigweed plant response rating (pigweed [3]; [14]) | Ragweed plant response rating (ragweed [4]; [14]) | Kochia plant response rating (kochia [5]; [14]) | Plant response rating, Pigweed (pigweed [8]; 1000 g ai/ha) | Barnyardgrass plant response rating (barnyardgrass [9]; [14]) | Foxtail, Giant plant response rating (giant foxtail [12]; [14])
70: Plant response rating, Barnyardgrass (barnyardgrass [11]; 1000 g ai/ha)
30: Ryegrass, Italian plant response rating (Italian ryegrass [1]; [14]) | Plant response rating, Ryegrass, Italian (Italian ryegrass [7]; 1000 g ai/ha) | Plant response rating, Wheat (wheat; 1000 g ai/ha)

Fc1cnc(Oc2ccccc2-n2cc(OCC(F)(F)F)cn2)nc1 [Compound 241]
60: Plant response rating, Galium (galium; 125 g ai/ha) | Barnyardgrass plant response rating (0 to 100 scale, 0 is no effect, 100 is complete control) (barnyardgrass [9])
80: Plant response rating, Pigweed (pigweed [3]) | Plant response rating, Pigweed (pigweed [8]; 125 g ai/ha)
30: Plant response rating, Ragweed (ragweed [6]; 125 g ai/ha)
50: Plant response rating, Kochia (kochia [2]; 31 g ai/ha) | Plant response rating, Kochia (kochia [5]) | Plant response rating, Foxtail, Giant (giant foxtail [12])
10: Plant response rating, Corn (corn; 125 g ai/ha) | Plant response rating, Ragweed (ragweed [6]; 31 g ai/ha) | Plant response rating, Barnyardgrass (barnyardgrass [9]) | Plant response rating, Wheat (wheat; 125 g ai/ha) | Plant response rating, Barnyardgrass (barnyardgrass [11]; 125 g ai/ha)
40: Ragweed plant response rating (0 to 100 scale) (ragweed [4]) | Plant response rating, Galium (galium; 31 g ai/ha) | Plant response rating, Pigweed (pigweed [8]; 31 g ai/ha) | Plant response rating, Ducksalad (Heteranthera limosa)
90: Plant response rating, Kochia (kochia [2]; 125 g ai/ha)
20: Plant response rating, Foxtail, Giant (giant foxtail [10]; 125 g ai/ha) | Plant response rating, Blackgrass (blackgrass; 125 g ai/ha)
0: Plant response rating, Ryegrass, Italian (Italian ryegrass [1]) | Ryegrass, Italian plant response rating (0 to 100 scale) (Italian ryegrass [1]) | Plant response rating, Ragweed (ragweed [4]) | Plant response rating, Sedge, Umbrella (sedge, umbrella) | Plant response rating, Rice (rice) | Plant response rating, Corn (corn; 31 g ai/ha) | Plant response rating, Ryegrass, Italian (Italian ryegrass [7]; 31 g ai/ha) | Plant response rating, Ryegrass, Italian (Italian ryegrass [7]; 125 g ai/ha) | Plant response rating, Foxtail, Giant (giant foxtail [10]; 31 g ai/ha) | Plant response rating, Wheat (wheat; 31 g ai/ha) | Plant response rating, Barnyardgrass (barnyardgrass [11]; 31 g ai/ha) | Plant response rating, Barnyardgrass (barnyardgrass [13]) | Plant response rating, Blackgrass (blackgrass; 31 g ai/ha)
100: Pigweed plant response rating (0 to 100 scale) (pigweed [3]) | Kochia plant response rating (0 to 100 scale) (kochia [5]) | Foxtail, Giant plant response rating (0 to 100 scale) (giant foxtail [12])

N#Cc1cnn(-c2c(CF)cccc2Oc2ncc(Cl)cn2)c1 [Compound 242]
20: Plant response rating, Ragweed (ragweed [6]; 31 g ai/ha) | Plant response rating, Barnyardgrass (barnyardgrass [9]) | Plant response rating, Barnyardgrass (barnyardgrass [13])
75: Plant response rating, Sedge, Umbrella (sedge, umbrella)
60: Plant response rating, Corn (corn; 125 g ai/ha) | Plant response rating, Wheat (wheat; 125 g ai/ha) | Plant response rating, Barnyardgrass (barnyardgrass [11]; 125 g ai/ha)
50: Plant response rating, Ragweed (ragweed [4]) | Plant response rating, Ragweed (ragweed [6]; 125 g ai/ha) | Plant response rating, Foxtail, Giant (giant foxtail [10]; 125 g ai/ha)
10: Plant response rating, Galium (galium; 31 g ai/ha)
80: Plant response rating, Kochia (kochia [2]; 125 g ai/ha) | Ragweed plant response rating (0 to 100 scale) (ragweed [4]) | Plant response rating, Pigweed (pigweed [8]; 125 g ai/ha)
100: Pigweed plant response rating (0 to 100 scale) (pigweed [3]) | Kochia plant response rating (0 to 100 scale) (kochia [5]) | Plant response rating, Foxtail, Giant (giant foxtail [12]) | Foxtail, Giant plant response rating (0 to 100 scale) (giant foxtail [12])
0: Plant response rating, Ryegrass, Italian (Italian ryegrass [1]) | Ryegrass, Italian plant response rating (0 to 100 scale) (Italian ryegrass [1]) | Plant response rating, Rice (rice) | Plant response rating, Corn (corn; 31 g ai/ha) | Plant response rating, Ryegrass, Italian (Italian ryegrass [7]; 31 g ai/ha) | Plant response rating, Foxtail, Giant (giant foxtail [10]; 31 g ai/ha) | Plant response rating, Wheat (wheat; 31 g ai/ha) | Plant response rating, Barnyardgrass (barnyardgrass [11]; 31 g ai/ha)
30: Plant response rating, Kochia (kochia [2]; 31 g ai/ha) | Plant response rating, Galium (galium; 125 g ai/ha) | Plant response rating, Kochia (kochia [5]) | Plant response rating, Ryegrass, Italian (Italian ryegrass [7]; 125 g ai/ha) | Plant response rating, Pigweed (pigweed [8]; 31 g ai/ha) | Plant response rating, Blackgrass (blackgrass; 31 g ai/ha)
90: Plant response rating, Pigweed (pigweed [3]) | Plant response rating, Blackgrass (blackgrass; 125 g ai/ha)
70: Barnyardgrass plant response rating (0 to 100 scale, 0 is no effect, 100 is complete control) (barnyardgrass [9]) | Plant response rating, Ducksalad (Heteranthera limosa)

Source: patent publication US9695155B2, “Herbicidal substituted pyrimidinyloxy benzene compounds” (E. I. DU PONT DE NEMOURS AND COMPANY, priority 2013, dated 2017)
